pIC50: −log10 of the molar value.

For experiment [1], the system named is A2058. Briefly: MTT proliferation assay, A2058. It counts as cell-based. The following applies: Homo sapiens, A2058, 120 h, Melanoma, A2058, 120 h of exposure. The protocol:
(§1) Proliferation Assays. IC50 values were determined for each cell line. Cells were seeded in 96-well plates at an appropriate cell density as determined from growth kinetics analysis and cultured for 5 days in the absence and presence of the test compounds. Cell proliferation was assessed after the addition of 20 μl of 3-4,5 dimethylthiazol-2,5-diphenyl tetrazolium bromide (MTT, 5 mg/ml in PBS, Sigma) for 5 hrs at 37° C. according to manufacturer's instructions. IC50 values were calculated from semi-log plots of % of control proliferation on the y-axis against log dose on the x-axis.
(§2) Anti-proliferative Activity of Isoflavonoid Derivatives. IC50 values were determined for each cell line after 120 h of exposure.

Experiment [2] deals with PC3. Briefly: MTT proliferation assay, PC3. It counts as cell-based. As to conditions: Homo sapiens, PC-3, 120 h, Prostate, PC3, 120 h of exposure. Here is the method: as §1, §2
(Tetrazolium dyes change colour on reduction, which living cells bring about.)

In experiment [3] the test system is A549. Briefly: MTT proliferation assay, A549. As to conditions: Homo sapiens; NSCLC, A549, 120 h of exposure. It counts as cell-based. Here is the method: as §1, §2
Experiment [4] deals with CP70. Briefly: MTT proliferation assay, CP70. It is filed as cell-based. The following applies: 120 h, Ovarian, CP70, 120 h of exposure. The protocol: as §1, §2
Experiment [5] relates to COLO205. Briefly: MTT proliferation assay, COLO205. The following applies: Homo sapiens, COLO 205; CRC, COLO205, 120 h of exposure. It counts as cell-based, human. Here is the method: (§3) The human non-small cell lung adenocarcinoma lines NCI-H1299 (CRL-5803), NCI-H460 (HTB-177), NCI-H358 (CRL-5807), NCI-H838 (CRL-5844), the human colorectal adenocarcinoma lines COLO 205 (CCL-222), HCT-15 (CCL-225) and the human gastric cancer cell line NCI-N87 (CRL-5822) were cultured in RPMI 1640 medium containing 2 g/L sodium bicarbonate (Hyclone/Invitrogen) supplemented with 2 mM L-glutamine (Gibco) 1 mM sodium pyruvate (Sigma), 10 mM HEPES (Sigma) and 4500 mg/L glucose (Sigma). The human non-small cell lung adenocarcinoma line NCI-H2126 (CCL-256) was cultured in DMEM:F12(1:1) (Hyclone/Invitrogen) containing 2.5 mM L-glutamine 2.4 g/L sodium bicarbonate supplemented with 5% fetal bovine serum (FBS), an additional 2 mM L-glutamine, 15 mM HEPES, 0.005 mg/ml insulin (Sigma), 0.01 mg/ml transferrin (Sigma), 30 nM sodium selenite (Sigma), 10 nM hydrocortisone (Sigma) and 10 nM beta-estradiol (Sigma). The human colorectal adenocarcinoma line HT-29 (HTB-38) and the human gastric cancer cell lines OE-19 (#96071721) and MKN1 (JCRB0252) were cultured in RPMI 1640 media supplemented with 2 mM L-glutamine.
as §1, §2

Experiment [6] concerns HuH-7. Briefly: MTT proliferation assay, HuH-7. As to conditions: Homo sapiens; Liver, HuH-7, 120 h of exposure. It counts as cell-based, human. Here is the method: (§4) The human hepatocellular carcinoma lines HepG2 (HB-8065), SK-HEP-1 (HTB-52) and the normal human lung fibroblast line IMR-90 (CCL-186) were cultured in Minimum Essential Eagles Medium containing 2 mM L-glutamine, 2.2 g/L sodium bicarbonate, supplemented with 1 mM sodium pyruvate and 0.1 mM non-essential amino acids. The human hepatocellular carcinoma line JHH-1 (JCRB1062) was cultured in Williams E Medium (Invitrogen) containing 2.2 g/L sodium bicarbonate, supplemented with 2 mM L-glutamine. The hepatocellular carcinoma line HuH-7 (JCRB0403) was cultured in DMEM, supplemented with 2 mM L-glutamine.
as §1, §2

For experiment [7], the system named is A2780. Briefly: MTT proliferation assay, A2780. As to conditions: Homo sapiens, A2780, 120 h, Ovarian, A2780, 120 h of exposure. It is filed as cell-based. The protocol: as §1, §2
The test system of experiment [8] is CALU3. Briefly: MTT proliferation assay, CALU3. The following applies: Homo sapiens, Calu-3; NSCLC, CALU3, 120 h of exposure. It counts as cell-based. Here is the method:
as §1, §2

For experiment [9], the system named is 4405. Briefly: MTT proliferation assay, 4405. It is filed as cell-based. The following applies: Melanoma, 4405, 120 h of exposure. The protocol: as §1, §2
In experiment [10] the test system is LNCaP. Briefly: MTT proliferation assay, LNCaP. It is filed as cell-based. As to conditions: Homo sapiens, Prostate, 120 h of exposure. Here is the method: as §1, §2
In experiment [11] the test system is NCI-H460. Briefly: MTT proliferation assay, NCI-H460. It is filed as cell-based, human. The following applies: Homo sapiens; NSCLC, NCI-H460, 120 h of exposure. The protocol: as §3, §1, §2
Experiment [12] has as its system R-182. Briefly: MTT proliferation assay, R-182. As to conditions: Ovarian, R-182, 120 h of exposure. It is filed as cell-based.
Source text: Tissue culture. The multidrug resistant primary epithelial ovarian cancer cell line R-182 TARA was a gift from Dr. Gil Mor (Yale University, New Haven, CT, USA). This cell line was derived by explant from ovarian tumors and cultured as previously described. All other cell lines were purchased from American Type Culture Collection (ATCC, Manassas, VA, USA) with the exception of MKN1, HuH-7, JHH-1, which were purchased from the Japanese Collection of Research Bioresources (JCRB, Osaka, Japan), and OE19 which was purchased from the European Collection of Cell Cultures (ECACC, Salisbury, UK).
as §1, §2

Experiment [13] deals with SK-Hep-1. Briefly: MTT proliferation assay, SK-Hep-1. It is filed as cell-based, human. The following applies: Homo sapiens, SK-HEP1; Liver, SK-Hep-1, 120 h of exposure. The protocol:
as §4, §1, §2

Experiment [14] has as its system HepG2. Briefly: MTT proliferation assay, HepG2. It counts as cell-based, human. As to conditions: Homo sapiens; Liver, HepG2, 120 h of exposure. The protocol:
as §4, §1, §2

Experiment [15] concerns MDA-MB-468. Briefly: MTT proliferation assay, MDA-MB-468. It is filed as cell-based, human. The following applies: Homo sapiens, MDA-MB-468, 120 h, Breast, MDA-MB-468, 120 h of exposure. Here is the method: The human gastric cancer cell line AGS (CRL-1739) was cultured in Hams F-12K (Kaighans modification) medium containing 2 mM L-glutamine, 2.5 g/L sodium bicarbonate and 2 mM sodium pyruvate. The human breast adenocarcinoma line MDA-MB-468 (HTB-132) was cultured in DMEM:F12 (1:1) medium containing 2.5 mM L-glutamine, 2.4 g/L sodium bicarbonate, supplemented with an additional 2 mM L-glutamine.
as §1, §2

The subject of experiment [16] is DU145. Briefly: MTT proliferation assay, DU145. It counts as cell-based. The following applies: Homo sapiens, DU-145; Prostate, DU145, 120 h of exposure. The protocol:
as §1, §2

Experiment [17] deals with SKBR-3. Briefly: MTT proliferation assay, SKBR-3. It counts as cell-based, human. The following applies: Homo sapiens, SK-BR-3, 120 h, Breast, SKBR-3, 120 h of exposure. Here is the method: The human colorectal adenocarcinoma line HCT-116 (CCL-247) and the human breast adenocarcinoma line SK-BR-3 (HTB-30) were cultured in McCoy's 5a Medium (Invitrogen) containing 1.5 mM L-glutamine and 2.2 g/L sodium bicarbonate. The human colorectal adenocarcinoma line SW620 (CCL-227) was cultured in Leibovitz's L-15 Medium (Invitrogen) containing 2.05 mM L-glutamine.
as §1, §2

Experiment [18] has as its system MM200. Briefly: MTT proliferation assay, MM200. It is filed as cell-based. As to conditions: Melanoma, MM200, 120 h of exposure. Here is the method:
as §1, §2

Turning to `COc1ccc([C@@H]2c3ccc(O)c(C)c3OC[C@@H]2c2ccc(O)cc2)cc1C` [l-7, l-cis-3-(4-hydroxyphenyl)-4-(4-methoxy-3-methylphenyl)-8-methylchroman-7-ol], the negative-log IC50 (pIC50) in experiment [1], in [2], in experiment [3], in experiment [4], in experiment [5] and in experiment [6] was at most 5.00 throughout. Besides, the pIC50 in experiment [7], in experiment [8], in [9], in [10], in [11] and in experiment [12] was at most 5.00 each time. Moreover, the pIC50 in experiment [13], in [14], in experiment [15] and in experiment [16] was at most 5.00 throughout.
For the compound `COc1ccc([C@H]2c3ccc(O)c(C)c3OC[C@H]2c2ccc(O)cc2)cc1C` [d-7, d-cis-3-(4-hydroxyphenyl)-4-(4-methoxy-3-methylphenyl)-8-methylchroman-7-ol], the pIC50 (as a rule, −log10 of the IC50, conventionally taken in molar units) is 5.82 to 6.29 in experiment [1]; 5.82 to 6.29 in [2]; 5.00 to 5.80 in [3]; 5.82 to 6.29 in [4]; at most 5.00 in experiment [5]; 5.82 to 6.29 in [6]. In addition, the negative logarithm of the IC50 (pIC50) in experiment [7] is 5.82 to 6.29; in experiment [8], 5.00 to 5.80; in [9] it was 5.00 to 5.80; in experiment [10], 5.00 to 5.80; in experiment [11] it was 5.00 to 5.80; in experiment [12] it was 5.82 to 6.29. Also, the pIC50 in experiment [13] is 5.00 to 5.80; in experiment [14], 5.82 to 6.29; in experiment [15], 6.30 to 6.82; in experiment [16], 5.82 to 6.29.
On to `Cc1cc(C2c3ccc(O)c(C)c3OCC2c2ccc(O)cc2)ccc1O` (centres unmarked) [Compound 6, 3-(4-hydroxyphenyl)-4-(4-hydroxy-3-methylphenyl)-8-methylchroman-7-ol], for which the pIC50 in experiment [1] was 6.30 to 6.82; in [2], 6.30 to 6.82; in [3] it was 5.82 to 6.29; in experiment [17] it was at least 6.82; in experiment [4], 5.82 to 6.29; in [5], 5.00 to 5.80. Moreover, the pIC50 is 6.30 to 6.82 in experiment [6]; 6.30 to 6.82 in [7]; 6.30 to 6.82 in [8]; 6.30 to 6.82 in [9]; 5.82 to 6.29 in [10]; 6.30 to 6.82 in [11]. Besides, the pIC50 in experiment [12] was 6.30 to 6.82; in [13] it was 6.30 to 6.82; in [18] it was 5.82 to 6.29; in experiment [14] it was 6.30 to 6.82; in [15], 6.30 to 6.82; in experiment [16], 6.30 to 6.82.
